Results taken from ChEMBL document CHEMBL3132748, “Novel inhibitors of breast cancer relevant kinases Brk and HER2” (Medchemcomm, 2014).
Active and inactive are the calls of the source. No cut-off for these calls is given here.

Key:
[1] = target: Receptor tyrosine-protein kinase erbB-2 (Homo sapiens, UniProt P04626); assay: Inhibition of human recombinant GST-fused HER2 expressed in baculovirus Sf9 insect cells using poly(Glu,Tyr) as substrate after 60 mins by scintillation counting
[2] = target: T1, Protein-tyrosine kinase 6 (Homo sapiens, UniProt Q13882); assay: Inhibition of human recombinant GST-fused Brk expressed in baculovirus Sf9 insect cells using poly(Glu,Tyr) as substrate after 60 mins by scintillation counting
Target sequence in this assay (Q13882 whole entry, the tested form may be a part): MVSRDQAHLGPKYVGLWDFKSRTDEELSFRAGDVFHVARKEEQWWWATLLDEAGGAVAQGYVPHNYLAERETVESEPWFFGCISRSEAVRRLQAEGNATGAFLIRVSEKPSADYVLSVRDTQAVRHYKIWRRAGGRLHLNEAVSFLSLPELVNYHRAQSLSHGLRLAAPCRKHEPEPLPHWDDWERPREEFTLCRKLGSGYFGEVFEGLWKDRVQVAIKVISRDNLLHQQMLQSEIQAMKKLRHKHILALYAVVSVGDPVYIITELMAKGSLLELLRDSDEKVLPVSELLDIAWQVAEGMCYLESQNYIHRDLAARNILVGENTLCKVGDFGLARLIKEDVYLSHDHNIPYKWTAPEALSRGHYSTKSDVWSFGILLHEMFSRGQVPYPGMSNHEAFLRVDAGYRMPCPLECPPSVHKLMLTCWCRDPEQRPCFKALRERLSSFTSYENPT

MDA-MB-468 = assay: Antiproliferative activity against human MDA-MB-468 cells by SRB assay; assay type: functional
MCF7 = assay: Antiproliferative activity against human MCF7 cells by SRB assay; assay type: functional
[3] = target: T1, Protein-tyrosine kinase 6; assay: Inhibition of BRK in human T47D cells assessed as phosphorylation of STAT3 at >100 nM by Western blot analysis; assay type: cell-based
Target sequence in this assay (Q13882 whole entry, looked up, the tested form may be a part): as the sequence (Q13882 whole entry, the tested form may be a part) above

Aurora kinase C = target: T2, Aurora kinase C (Homo sapiens, UniProt Q9UQB9); assay: Inhibition of aurora-C (unknown origin) using tetra(LRRWSLG) as substrate after 60 mins by scintillation counting
T2 sequence (Q9UQB9 whole entry): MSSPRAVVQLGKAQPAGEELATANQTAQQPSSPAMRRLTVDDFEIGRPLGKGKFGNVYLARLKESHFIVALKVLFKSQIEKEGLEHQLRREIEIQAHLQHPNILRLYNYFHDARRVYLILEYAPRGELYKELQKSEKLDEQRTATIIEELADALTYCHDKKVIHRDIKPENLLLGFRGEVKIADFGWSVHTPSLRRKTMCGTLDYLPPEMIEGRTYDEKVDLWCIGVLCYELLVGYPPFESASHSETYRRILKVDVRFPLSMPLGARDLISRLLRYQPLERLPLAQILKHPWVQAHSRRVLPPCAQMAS

Aurora kinase A = target: T3, Aurora kinase A (Homo sapiens, UniProt O14965); assay: Inhibition of aurora-A (unknown origin) using tetra(LRRWSLG) as substrate after 60 mins by scintillation counting
T3 sequence (O14965 whole entry): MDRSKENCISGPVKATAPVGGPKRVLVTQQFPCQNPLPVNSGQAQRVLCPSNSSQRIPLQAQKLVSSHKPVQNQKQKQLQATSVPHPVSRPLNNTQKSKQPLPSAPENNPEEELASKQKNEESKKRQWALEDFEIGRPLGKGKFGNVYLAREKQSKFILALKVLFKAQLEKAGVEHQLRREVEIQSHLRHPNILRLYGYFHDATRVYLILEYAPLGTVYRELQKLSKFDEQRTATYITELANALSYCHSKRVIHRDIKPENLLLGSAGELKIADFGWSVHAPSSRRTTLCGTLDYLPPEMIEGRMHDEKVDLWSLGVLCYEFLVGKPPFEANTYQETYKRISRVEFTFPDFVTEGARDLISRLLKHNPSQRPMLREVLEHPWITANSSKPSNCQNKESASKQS

[4] = target: Epidermal growth factor receptor (Homo sapiens, UniProt P00533); assay: Inhibition of EGFR (unknown origin) using poly(Glu,Tyr) as substrate after 60 mins by scintillation counting
Chain of Epidermal growth factor receptor (P00533 whole entry): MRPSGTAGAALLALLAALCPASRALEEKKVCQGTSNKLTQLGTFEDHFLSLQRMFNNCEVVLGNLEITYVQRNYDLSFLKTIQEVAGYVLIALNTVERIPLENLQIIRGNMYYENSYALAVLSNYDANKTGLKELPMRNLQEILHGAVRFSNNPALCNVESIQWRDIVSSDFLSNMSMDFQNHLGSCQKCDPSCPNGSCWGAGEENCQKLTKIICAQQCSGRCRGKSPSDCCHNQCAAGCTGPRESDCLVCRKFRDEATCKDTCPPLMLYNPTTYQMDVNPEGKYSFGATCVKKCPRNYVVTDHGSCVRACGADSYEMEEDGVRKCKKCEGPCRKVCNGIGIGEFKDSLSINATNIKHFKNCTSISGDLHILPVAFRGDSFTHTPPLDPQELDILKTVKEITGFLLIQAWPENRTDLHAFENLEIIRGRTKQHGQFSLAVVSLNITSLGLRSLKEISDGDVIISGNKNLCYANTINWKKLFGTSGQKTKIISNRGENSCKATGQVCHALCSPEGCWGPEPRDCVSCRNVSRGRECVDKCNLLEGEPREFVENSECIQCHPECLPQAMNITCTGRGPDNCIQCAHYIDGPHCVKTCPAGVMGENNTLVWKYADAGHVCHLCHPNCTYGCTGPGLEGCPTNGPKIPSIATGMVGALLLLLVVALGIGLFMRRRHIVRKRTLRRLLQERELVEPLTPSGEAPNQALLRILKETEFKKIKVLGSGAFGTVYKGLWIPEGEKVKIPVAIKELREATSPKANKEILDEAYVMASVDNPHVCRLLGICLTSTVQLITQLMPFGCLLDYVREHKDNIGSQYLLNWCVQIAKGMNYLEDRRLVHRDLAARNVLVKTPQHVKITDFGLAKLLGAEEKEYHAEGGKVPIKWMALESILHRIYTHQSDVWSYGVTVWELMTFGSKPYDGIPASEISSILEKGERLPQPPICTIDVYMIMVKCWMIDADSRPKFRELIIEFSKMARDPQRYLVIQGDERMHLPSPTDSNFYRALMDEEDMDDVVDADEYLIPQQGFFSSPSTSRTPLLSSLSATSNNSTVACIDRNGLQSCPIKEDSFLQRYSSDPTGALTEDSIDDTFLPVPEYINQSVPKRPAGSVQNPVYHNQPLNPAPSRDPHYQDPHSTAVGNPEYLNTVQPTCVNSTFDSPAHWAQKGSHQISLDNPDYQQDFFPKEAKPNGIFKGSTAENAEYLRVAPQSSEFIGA

[5] = target: RAC-beta serine/threonine-protein kinase (Homo sapiens) (UniProt P31751); assay: Inhibition of AKT2 (unknown origin)using GSK3 (14 to 27) as substrate after 60 mins by scintillation counting
[6] = target: RAC-alpha serine/threonine-protein kinase (Homo sapiens) (UniProt P31749); assay: Inhibition of AKT1 (unknown origin) using GSK3 (14 to 27) as substrate after 60 mins by scintillation counting
Chain of RAC-alpha serine/threonine-protein kinase (Homo sapiens) (P31749 whole entry): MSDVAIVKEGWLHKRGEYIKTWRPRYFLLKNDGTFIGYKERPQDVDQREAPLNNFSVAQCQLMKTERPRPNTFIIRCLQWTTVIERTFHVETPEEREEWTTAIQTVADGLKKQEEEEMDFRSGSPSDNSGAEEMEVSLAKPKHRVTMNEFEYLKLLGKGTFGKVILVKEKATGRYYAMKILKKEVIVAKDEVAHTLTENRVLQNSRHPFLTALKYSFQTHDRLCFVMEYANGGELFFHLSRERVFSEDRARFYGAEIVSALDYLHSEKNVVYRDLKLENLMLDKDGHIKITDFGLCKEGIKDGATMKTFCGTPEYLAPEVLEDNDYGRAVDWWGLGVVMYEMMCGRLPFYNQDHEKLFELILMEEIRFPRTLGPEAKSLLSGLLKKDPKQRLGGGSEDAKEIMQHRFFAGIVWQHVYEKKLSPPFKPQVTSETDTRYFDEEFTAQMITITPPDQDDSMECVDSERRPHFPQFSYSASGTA

[7] = target: T4, Serine/threonine-protein kinase VRK1 (Homo sapiens) (UniProt Q99986); assay: Inhibition of VRK1 (unknown origin) using RBER-CHKtide as substrate after 60 mins by scintillation counting
T4 sequence (whole entry): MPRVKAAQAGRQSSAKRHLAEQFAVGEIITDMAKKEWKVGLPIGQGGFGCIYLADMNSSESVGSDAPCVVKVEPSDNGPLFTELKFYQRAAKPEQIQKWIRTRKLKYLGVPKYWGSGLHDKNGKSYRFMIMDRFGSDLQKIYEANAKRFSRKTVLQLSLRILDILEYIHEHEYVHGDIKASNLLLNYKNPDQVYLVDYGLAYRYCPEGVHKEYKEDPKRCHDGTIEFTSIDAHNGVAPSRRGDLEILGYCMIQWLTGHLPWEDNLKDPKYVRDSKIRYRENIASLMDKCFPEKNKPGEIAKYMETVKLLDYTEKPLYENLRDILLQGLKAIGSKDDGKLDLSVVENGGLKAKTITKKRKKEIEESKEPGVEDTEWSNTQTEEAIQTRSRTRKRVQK

[8] = target: Serine/threonine-protein kinase PAK 1 (Homo sapiens) (UniProt Q13153); assay: Inhibition of PAK1 (unknown origin) using tetra(LRRWSLG) as substrate after 60 mins by scintillation counting
Chain of Serine/threonine-protein kinase PAK 1 (Homo sapiens) (Q13153 whole entry): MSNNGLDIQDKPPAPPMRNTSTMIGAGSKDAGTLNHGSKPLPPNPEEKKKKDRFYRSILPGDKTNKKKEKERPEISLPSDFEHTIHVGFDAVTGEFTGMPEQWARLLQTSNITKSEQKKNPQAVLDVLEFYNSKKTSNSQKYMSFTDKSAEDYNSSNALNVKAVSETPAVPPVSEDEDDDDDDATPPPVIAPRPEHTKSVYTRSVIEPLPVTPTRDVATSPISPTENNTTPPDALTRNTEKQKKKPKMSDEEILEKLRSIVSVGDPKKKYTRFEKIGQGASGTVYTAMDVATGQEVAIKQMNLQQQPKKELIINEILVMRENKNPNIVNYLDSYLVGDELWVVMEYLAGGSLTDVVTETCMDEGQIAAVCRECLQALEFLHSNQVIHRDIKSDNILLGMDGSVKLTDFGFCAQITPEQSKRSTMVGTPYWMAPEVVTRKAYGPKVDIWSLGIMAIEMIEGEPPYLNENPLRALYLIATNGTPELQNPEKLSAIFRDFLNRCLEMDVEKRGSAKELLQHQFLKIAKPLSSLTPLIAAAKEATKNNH

[9] = target: Mitogen-activated protein kinase 10 (Homo sapiens) (UniProt P53779); assay: Inhibition of JNK3 (unknown origin) using ATF2 as substrate after 60 mins by scintillation counting
Chain of Mitogen-activated protein kinase 10 (Homo sapiens) (P53779 whole entry): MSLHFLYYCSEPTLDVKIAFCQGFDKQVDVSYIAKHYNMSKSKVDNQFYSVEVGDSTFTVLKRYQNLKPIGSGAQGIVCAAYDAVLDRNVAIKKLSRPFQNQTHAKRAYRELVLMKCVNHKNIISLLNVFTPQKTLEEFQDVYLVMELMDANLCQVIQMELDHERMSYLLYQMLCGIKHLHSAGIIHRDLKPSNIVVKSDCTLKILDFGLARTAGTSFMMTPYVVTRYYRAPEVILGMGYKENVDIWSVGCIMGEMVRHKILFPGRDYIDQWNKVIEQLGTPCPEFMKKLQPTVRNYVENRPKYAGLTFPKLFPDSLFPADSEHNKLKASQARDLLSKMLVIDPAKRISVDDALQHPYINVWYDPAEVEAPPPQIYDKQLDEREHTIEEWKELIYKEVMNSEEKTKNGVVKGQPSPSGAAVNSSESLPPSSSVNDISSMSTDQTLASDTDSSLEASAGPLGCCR

[10] = target: Mitogen-activated protein kinase 8 (Homo sapiens) (UniProt P45983); assay: Inhibition of JNK1 (unknown origin) using ATF2 as substrate after 60 mins by scintillation counting
[11] = target: Mitogen-activated protein kinase 1 (Homo sapiens) (UniProt P28482); assay: Inhibition of ERK2 (unknown origin) using RBER-CHKtide as substrate after 60 mins by scintillation counting
Chain of Mitogen-activated protein kinase 1 (Homo sapiens) (P28482 whole entry): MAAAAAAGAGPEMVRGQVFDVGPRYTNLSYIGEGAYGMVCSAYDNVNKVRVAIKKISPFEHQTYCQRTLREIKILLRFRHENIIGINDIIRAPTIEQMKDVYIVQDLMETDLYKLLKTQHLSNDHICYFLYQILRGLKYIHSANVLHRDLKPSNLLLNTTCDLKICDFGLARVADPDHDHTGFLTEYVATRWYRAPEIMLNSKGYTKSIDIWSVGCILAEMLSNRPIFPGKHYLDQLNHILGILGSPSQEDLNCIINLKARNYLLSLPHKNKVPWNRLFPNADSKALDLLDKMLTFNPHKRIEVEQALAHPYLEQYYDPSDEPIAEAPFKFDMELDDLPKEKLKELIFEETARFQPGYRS

Chain of Receptor tyrosine-protein kinase erbB-2 (P04626 whole entry, the tested form may be a part): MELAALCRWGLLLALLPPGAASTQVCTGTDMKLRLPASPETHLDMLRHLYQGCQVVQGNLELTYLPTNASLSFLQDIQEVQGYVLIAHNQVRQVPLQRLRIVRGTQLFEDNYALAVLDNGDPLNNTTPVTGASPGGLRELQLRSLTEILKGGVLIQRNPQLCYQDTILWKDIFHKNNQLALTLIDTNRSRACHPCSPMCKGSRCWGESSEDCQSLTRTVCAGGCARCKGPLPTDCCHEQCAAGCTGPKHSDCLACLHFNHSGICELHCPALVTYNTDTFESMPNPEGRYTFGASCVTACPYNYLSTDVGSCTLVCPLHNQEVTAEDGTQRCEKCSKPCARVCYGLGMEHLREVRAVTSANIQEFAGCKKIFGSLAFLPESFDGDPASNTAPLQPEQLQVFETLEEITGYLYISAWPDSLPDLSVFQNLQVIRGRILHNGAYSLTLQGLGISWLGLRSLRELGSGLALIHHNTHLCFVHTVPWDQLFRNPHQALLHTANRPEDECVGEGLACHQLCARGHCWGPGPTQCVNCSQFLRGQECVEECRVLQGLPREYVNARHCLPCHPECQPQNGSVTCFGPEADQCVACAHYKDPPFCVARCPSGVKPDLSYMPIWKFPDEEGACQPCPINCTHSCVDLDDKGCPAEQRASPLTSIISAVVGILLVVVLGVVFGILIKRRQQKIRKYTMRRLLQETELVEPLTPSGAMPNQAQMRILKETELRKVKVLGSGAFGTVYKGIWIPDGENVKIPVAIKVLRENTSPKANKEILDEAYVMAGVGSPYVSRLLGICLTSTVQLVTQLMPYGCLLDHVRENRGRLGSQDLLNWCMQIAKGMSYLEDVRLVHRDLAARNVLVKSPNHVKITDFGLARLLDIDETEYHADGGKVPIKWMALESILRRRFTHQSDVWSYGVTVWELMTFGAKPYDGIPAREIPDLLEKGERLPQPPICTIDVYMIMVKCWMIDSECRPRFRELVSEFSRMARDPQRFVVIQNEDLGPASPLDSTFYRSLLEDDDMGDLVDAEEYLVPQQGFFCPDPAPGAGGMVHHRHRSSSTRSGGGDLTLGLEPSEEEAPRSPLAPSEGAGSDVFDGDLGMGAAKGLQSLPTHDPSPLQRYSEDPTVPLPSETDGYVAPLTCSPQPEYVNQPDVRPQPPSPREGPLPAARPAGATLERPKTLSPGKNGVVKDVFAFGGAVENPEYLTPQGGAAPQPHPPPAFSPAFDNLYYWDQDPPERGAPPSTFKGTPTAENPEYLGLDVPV

Compound	IC50 [1] [µM]	IC50 [2] [µM]	further results
CCOc1cccc(Nc2ccnc3[nH]c4ccc(S(=O)(=O)N5CCN(CCO)CC5)cc4c23)c1	6.53	0.479	–
Clc1cccc(Nc2ccnc3[nH]c4ccccc4c23)c1	0.066	–	–
CC(=O)c1ccc2[nH]c3nccc(Nc4cccc(O)c4)c3c2c1	0.013	> 1000	–
COc1cccc(Nc2ccnc3[nH]c4ccc(S(=O)(=O)N5CCOCC5)cc4c23)c1	1.24	0.0057	–
COc1cccc(Nc2ccnc3[nH]c4ccc(S(=O)(=O)N5CCN(CCO)CC5)cc4c23)c1	0.689	0.0092	–
Cc1ccccc1Nc1ccnc2[nH]c3ccccc3c12	0.978	> 1000	–
CC(=O)c1ccc2[nH]c3nccc(Nc4cccc(N)c4)c3c2c1	1.64	0.0076	–
CC(=O)c1ccc2[nH]c3nccc(Nc4cccc([N+](=O)[O-])c4)c3c2c1	0.978	0.021	–
CC(=O)c1ccc2[nH]c3nccc(Nc4cccc(Cl)c4)c3c2c1	1.15	0.013	–
CCOc1cccc(Nc2ccnc3[nH]c4ccc(S(=O)(=O)N5CCNCC5)cc4c23)c1	0.576	0.026	–
CCOc1cccc(Nc2ccnc3[nH]c4ccc(S(=O)(=O)N5CCOCC5)cc4c23)c1	54.8	0.41	–
Oc1cccc(Nc2ccnc3[nH]c4ccc(Br)cc4c23)c1	–	–	GI50 (MDA-MB-468): 1.35 µM; GI50 (MCF7): 0.44 µM
Clc1ccc(Nc2ccnc3[nH]c4ccccc4c23)cc1	0.31	> 1000	–
O=S(=O)(c1ccc2[nH]c3nccc(Nc4cccc(OCc5ccccc5)c4)c3c2c1)N1CCOCC1	28.3	0.055	–
O=S(=O)(c1ccc2[nH]c3nccc(Nc4cccc(O)c4)c3c2c1)N1CCOCC1	0.298	> 1000	–
Oc1cccc(Nc2ccnc3[nH]c4ccccc4c23)c1	1.3	–	GI50 (MDA-MB-468): 1 µM; GI50 (MCF7): 0.89 µM; inhibition [3]: Active; IC50 (Aurora kinase C): 0.259 µM; IC50 (Aurora kinase A): 0.25 µM; IC50 [4]: 0.27 µM; inhibition [5]: inactive; inhibition [6]: inactive; inhibition [7]: inactive; inhibition [8]: inactive; inhibition [9]: inactive; inhibition [10]: inactive; inhibition [11]: inactive
O=S(=O)(c1ccc2[nH]c3nccc(Nc4cccc(O)c4)c3c2c1)N1CCN(CCO)CC1	0.376	> 1000	–
COc1cccc(Nc2ccnc3[nH]c4ccc(S(=O)(=O)N5CCNCC5)cc4c23)c1	0.39	0.0048	–
